Results from patent US8188008B2, “Herbicidally and insecticidally active 4-phenyl-substituted pyridazinones” (Bayer Cropscience AG, priority 2008, dated 2012).

Test system: green peach aphid (Myzus persicae)
Assay: Myzus test (MYZUPE spray treatment)
Format: in vivo
Details: spray treatment of Chinese cabbage discs, application rate 500 g/ha; 100% = all aphids killed
Description: Myzus Test (MYZUPE Spray Treatment) [table] To produce a suitable preparation of active compound, 1 part by weight of active compound is mixed with the stated amounts of solvents and emulsifier, and the concentrate is diluted with emulsifier-containing water to the desired concentration. Discs of Chinese cabbage (Brassica pekinensis) which are infested by all stages of the green peach aphid (Myzus persicae) are sprayed with an active compound preparation of the desired concentration. After the desired period of time, the effect in % is determined. 100% means that all aphids have been killed; 0% means that none of the aphids have been killed.

## Cn1ncc(O)c(-c2ccc(Cl)c(Cl)c2)c1=O [I-1-a-4]
  effect in % (aphids killed): at least 80%
